Key:
[1] = Interconversion of the anhydrous and hydrated crystalline forms (XRPD); assay type: physicochemical
Experimental: X-ray powder diffraction (XRPD) analysis was performed using a PANalytical X'Pert Pro X-ray diffractometer. The X-ray source was Cu-kα1 with output voltage of 45 kV and current of 40 mA. The instrument employed para-focusing Bragg-Brentano geometry with incident divergence and scattering slits set at 1/16° and ⅛°, respectively. 0.04-mm radius soller slits were used for both the incident and diffracted beams to remove axial divergence. Powder samples (9-12 mg) were gently pressed onto a single crystal silicon sample holder to form a smooth surface, and samples were spun at 8 sec/revolution throughout the data acquisition process. The samples were scanned from 2° to 40° (2θ) with a step size of 0.017° (2θ°) and a scan speed of 0.067°/sec. Data acquisition was controlled and analyzed with X'Pert Data Collector Software (version 2.2d) and X'Pert Data Viewer (version 1.2c), respectively.
The anhydrous and hydrated crystalline forms of (2R)-2-phenylcarbonyloxypropyl (2S)-2-amino-3-(3,4-dihydroxyphenyl)propanoate mesylate interconvert depending on the water content of the environment.

[2] = Water sorption/desorption (dynamic vapor sorption); assay type: physicochemical; details: 25° C., humidity cycle 5% RH to 95% RH at 10% RH intervals
Experimental: The hygroscopicity of (2R)-2-phenylcarbonyloxypropyl (2S)-2-amino-3-(3,4-dihydroxyphenyl)propanoate mesylate, hydrate was evaluated during one vapor sorption-desorption cycle using a VTI SGA-100 dynamic vapor sorption analyzer. (2R)-2-Phenylcarbonyloxypropyl (2S)-2-amino-3-(3,4-dihydroxyphenyl)propanoate mesylate, hydrate was first dried at 25° C. for 180 min under a nitrogen atmosphere. The material was considered equilibrated when the weight change during 2 min was less than 0.01%. To evaluate the vapor sorption-desorption at 25° C., the dried (2R)-2-phenylcarbonyloxypropyl (2S)-2-amino-3-(3,4-dihydroxyphenyl)propanoate mesylate, hydrate was exposed to a humidity cycle ramped (and deramped) from 5% RH to 95% RH at 10% RH intervals. At each humidity interval, the material was equilibrated as determined by a less than 0.01% weight change during 5 min.

Row | Compound | Time for conversion to the hydrate in the presence of water vapor ([1]; about 25° C., humidity of at least about 60% RH) [h] | Crystal form after heating and then room temperature and humidity ([1]; after heating at 70° C., left at room temperature and humidity for 1 day) | Crystal form after heating ([1]; heated from 25° C. to 70° C. at 2° C./min, held at 70° C. for 15 min) | Crystal form after vacuum drying and then room temperature and humidity ([1]; vacuum dried overnight, then 25° C. and 40-60% RH for one day) | Hygroscopicity: vapor sorption-desorption [2]
1 | CS(=O)(=O)O.C[C@H](COC(=O)[C@@H](N)Cc1ccc(O)c(O)c1)OC(=O)c1ccccc1 [compound 1, (2R)-2-phenylcarbonyloxypropyl (2S)-2-amino-3-(3,4-dihydroxyphenyl)propanoate mesylate] | ≤ 24 |  |  |  | 
2 | CS(=O)(=O)O.C[C@H](COC(=O)[C@@H](N)Cc1ccc(O)c(O)c1)OC(=O)c1ccccc1.O [(2R)-2-phenylcarbonyloxypropyl (2S)-2-amino-3-(3,4-dihydroxyphenyl)propanoate mesylate, hydrate] |  | reverts to crystalline (2R)-2-phenylcarbonyloxypropyl (2S)-2-amino-3-(3,4-dihydroxyphenyl)propanoate mesylate, hydrate | converted to a transient/metastable crystalline form | a mixture of crystalline anhydrous and hydrate forms | humidity-dependent reversible sorption and desorption of water vapor

From patent publication US8722733B2 (XenoPort, Inc., priority 2008, dated 2014)
